Laboratory results reported in US9757375B2, “Compounds that inhibit human DNA ligases and methods of treating cancer” (University of Maryland, Baltimore, priority 2007, dated 2017).
“Also recorded” adds a separate entry of the source. Like-named read-outs stand apart in the source and are kept apart here.

Columns and labels:
hLigI = target: T1, hLigI (Homo sapiens, UniProt P18858); experiment: High-throughput fluorescence-based DNA joining (ligation) assay; type: biochemical; settings: for inhibition of hLigI (DNA ligase I), in words: in vitro screen, 100 μmol/L, the 15 hLigI inhibitors inhibited by >50%
T1 construct: made in house
T1 sequence (P18858 whole entry): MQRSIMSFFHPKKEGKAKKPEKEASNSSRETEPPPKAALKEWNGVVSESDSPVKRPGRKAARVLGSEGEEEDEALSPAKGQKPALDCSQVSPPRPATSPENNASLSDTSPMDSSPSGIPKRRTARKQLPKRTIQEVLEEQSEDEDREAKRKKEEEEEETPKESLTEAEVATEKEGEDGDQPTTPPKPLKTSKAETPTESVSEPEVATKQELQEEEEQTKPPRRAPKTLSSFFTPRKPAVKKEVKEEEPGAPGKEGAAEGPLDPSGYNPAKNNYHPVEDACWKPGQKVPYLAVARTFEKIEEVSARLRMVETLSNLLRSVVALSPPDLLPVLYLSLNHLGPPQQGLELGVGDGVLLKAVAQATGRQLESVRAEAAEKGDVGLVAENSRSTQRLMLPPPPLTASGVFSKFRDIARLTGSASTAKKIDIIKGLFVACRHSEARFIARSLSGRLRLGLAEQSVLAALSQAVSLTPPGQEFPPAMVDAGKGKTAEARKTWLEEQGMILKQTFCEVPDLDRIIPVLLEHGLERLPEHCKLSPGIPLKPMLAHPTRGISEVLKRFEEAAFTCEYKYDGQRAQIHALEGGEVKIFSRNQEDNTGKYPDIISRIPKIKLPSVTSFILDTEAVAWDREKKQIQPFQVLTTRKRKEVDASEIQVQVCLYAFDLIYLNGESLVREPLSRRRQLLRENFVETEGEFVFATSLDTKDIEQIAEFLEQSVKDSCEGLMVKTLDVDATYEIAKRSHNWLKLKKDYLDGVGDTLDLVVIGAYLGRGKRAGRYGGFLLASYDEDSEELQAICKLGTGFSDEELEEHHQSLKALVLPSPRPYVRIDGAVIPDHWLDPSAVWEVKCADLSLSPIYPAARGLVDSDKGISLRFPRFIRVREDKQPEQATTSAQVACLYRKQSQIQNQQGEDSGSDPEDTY
In short: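 Nicked DNA substrate (10 pmol) was incubated with 0.25 pmol hLigI, with or without 100 μmol/L test compound, in duplicate. Afterwards the DNA was denatured and renatured with a 20-fold excess of unmodified oligonucleotide. Ligation forms an AF488/BHQ1 hairpin, read as reduced fluorescence at 518 nm.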

human DNA ligase III = target: T2, human DNA ligase III (Homo sapiens, UniProt P49916); experiment: as above; type: biochemical; settings: for inhibition of human DNA ligase III, in words: in vitro screen
T2 sequence (P49916 1-862 isoform P49916-4): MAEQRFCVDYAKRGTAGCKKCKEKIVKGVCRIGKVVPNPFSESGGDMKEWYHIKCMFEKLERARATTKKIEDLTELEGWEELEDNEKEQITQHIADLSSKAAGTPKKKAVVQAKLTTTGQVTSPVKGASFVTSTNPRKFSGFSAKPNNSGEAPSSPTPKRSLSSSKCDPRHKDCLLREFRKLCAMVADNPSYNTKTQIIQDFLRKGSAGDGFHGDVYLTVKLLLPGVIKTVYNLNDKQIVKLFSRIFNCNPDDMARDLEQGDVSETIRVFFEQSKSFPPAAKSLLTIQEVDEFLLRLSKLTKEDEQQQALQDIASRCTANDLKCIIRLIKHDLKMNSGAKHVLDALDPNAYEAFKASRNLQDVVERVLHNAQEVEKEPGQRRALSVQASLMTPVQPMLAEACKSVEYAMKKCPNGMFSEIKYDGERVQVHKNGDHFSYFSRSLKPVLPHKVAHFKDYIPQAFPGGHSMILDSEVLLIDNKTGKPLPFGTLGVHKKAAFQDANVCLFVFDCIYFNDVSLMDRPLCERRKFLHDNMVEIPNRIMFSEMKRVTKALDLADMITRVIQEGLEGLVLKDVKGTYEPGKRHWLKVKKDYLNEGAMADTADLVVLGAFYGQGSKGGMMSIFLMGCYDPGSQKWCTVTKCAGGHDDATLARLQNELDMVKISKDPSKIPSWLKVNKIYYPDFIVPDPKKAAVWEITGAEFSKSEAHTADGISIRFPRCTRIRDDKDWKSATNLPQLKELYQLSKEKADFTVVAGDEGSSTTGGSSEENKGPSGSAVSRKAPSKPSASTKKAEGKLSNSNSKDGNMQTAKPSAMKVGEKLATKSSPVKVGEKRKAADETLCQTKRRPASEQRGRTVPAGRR
In short: (§1)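 Ligation joins an AF488-labelled and a BHQ1-labelled oligonucleotide. After denaturation and renaturation with a 20-fold excess of unlabelled competitor strand, the product forms a quenched hairpin, so joining is read as loss of 518 nm fluorescence. Ligase III used a nicked duplex; ligase IV used two duplexes with short complementary single-strand ends.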

human DNA ligase IV = human DNA ligase IV (Homo sapiens, UniProt P49917); experiment: as above; type: biochemical; settings: for inhibition of human DNA ligase IV, in words: in vitro screen
Chain of human DNA ligase IV (P49917 whole entry): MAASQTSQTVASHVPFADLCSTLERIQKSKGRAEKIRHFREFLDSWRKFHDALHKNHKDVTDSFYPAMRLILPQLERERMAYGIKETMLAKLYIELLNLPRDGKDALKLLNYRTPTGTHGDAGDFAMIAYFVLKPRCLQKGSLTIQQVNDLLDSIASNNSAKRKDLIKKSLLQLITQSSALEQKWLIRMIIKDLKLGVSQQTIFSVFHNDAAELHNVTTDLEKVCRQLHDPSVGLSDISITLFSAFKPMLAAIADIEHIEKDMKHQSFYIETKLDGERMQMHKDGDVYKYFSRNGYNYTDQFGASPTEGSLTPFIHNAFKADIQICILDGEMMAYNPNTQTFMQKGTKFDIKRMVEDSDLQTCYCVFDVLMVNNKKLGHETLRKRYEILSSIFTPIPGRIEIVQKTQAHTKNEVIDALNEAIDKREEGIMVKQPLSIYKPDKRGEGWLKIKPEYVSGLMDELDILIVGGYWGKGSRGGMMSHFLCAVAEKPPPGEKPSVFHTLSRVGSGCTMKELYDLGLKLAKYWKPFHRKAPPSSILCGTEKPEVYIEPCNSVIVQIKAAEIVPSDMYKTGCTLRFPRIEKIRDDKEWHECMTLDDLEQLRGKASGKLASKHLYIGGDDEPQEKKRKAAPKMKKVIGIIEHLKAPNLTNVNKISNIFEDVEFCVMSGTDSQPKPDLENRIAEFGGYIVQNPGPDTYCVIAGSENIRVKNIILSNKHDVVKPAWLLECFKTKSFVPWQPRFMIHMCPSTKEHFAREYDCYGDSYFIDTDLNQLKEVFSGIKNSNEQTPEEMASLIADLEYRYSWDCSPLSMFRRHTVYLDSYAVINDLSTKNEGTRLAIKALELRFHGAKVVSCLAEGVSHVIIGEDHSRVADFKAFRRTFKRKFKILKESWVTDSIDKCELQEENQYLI
Chain of human DNA ligase IV (Q13426 whole entry partner): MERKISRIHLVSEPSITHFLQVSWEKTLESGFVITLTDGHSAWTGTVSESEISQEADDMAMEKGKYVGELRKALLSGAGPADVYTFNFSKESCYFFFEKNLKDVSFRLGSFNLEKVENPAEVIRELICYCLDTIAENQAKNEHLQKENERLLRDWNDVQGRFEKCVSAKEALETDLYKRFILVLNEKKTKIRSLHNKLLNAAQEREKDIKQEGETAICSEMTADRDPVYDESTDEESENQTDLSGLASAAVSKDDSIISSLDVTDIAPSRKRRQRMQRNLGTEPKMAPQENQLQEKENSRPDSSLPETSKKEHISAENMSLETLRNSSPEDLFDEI
In short: as §1

T4 DNA ligase = target: T3, T4 DNA ligase (Enterobacteria phage T4, UniProt P00970); experiment: High-throughput fluorescence-based DNA joining assay, non-specific inhibitor control; type: biochemical, bacteriophage T4; settings: for inhibition of T4 DNA ligase, in words: in vitro screen, 100 μmol/L
T3 construct: purchased NEB
T3 sequence (P00970 1-487): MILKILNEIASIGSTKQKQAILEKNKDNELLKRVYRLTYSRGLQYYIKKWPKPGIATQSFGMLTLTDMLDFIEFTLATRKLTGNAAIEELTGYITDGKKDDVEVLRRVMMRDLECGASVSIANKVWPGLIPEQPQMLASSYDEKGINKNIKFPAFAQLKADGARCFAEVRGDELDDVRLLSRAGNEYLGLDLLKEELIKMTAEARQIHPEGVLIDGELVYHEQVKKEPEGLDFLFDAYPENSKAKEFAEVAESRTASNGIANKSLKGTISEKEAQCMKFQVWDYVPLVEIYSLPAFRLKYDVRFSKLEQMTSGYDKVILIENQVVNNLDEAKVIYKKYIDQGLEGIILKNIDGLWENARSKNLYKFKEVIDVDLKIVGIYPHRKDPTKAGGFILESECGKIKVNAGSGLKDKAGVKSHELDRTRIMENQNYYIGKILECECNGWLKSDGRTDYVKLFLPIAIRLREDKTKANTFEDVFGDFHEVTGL
In short: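 This counter-screen used a FRET-based DNA joining assay. Duplicate reactions held 10 pmol nicked DNA substrate and 10 units T4 DNA ligase, with or without 100 μmol/L compound. T4 ligase lacks the DNA-binding domain targeted in silico, so compounds inhibiting it were flagged as non-specific, likely DNA-binding.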

[1] = 100 uM, read-out: % activity Inhibition hLigI 100 uM
[2] = 100 μM, read-out: In vitro % inhib hLigI 100
[3] = 100 μM, read-out: In vitro % inhib hLigIII 100
[4] = 100 uM, Ø not defined (0 in Table 5A)
[5] = 100 μM, read-out: In vitro % inhib hLigIV 100
[6] = 100 μM, read-out: In vitro % inhib T4 100
[7] = read-out: % activity Inhibition LigT4 100 uM
[8] = 100 μM, read-out: % of inhibition @ 100 μM (Helen's data) hLigI
[9] = 100 uM, Ø not defined (0 in Table 5A), read-out: % activity Inhibition hLigIII 100 uM
[10] = read-out: % of inhibition @ 100 μM (Helen's data) hLigIII
[11] = 100 μM, read-out: % of inhibition @ 100 μM (Helen's data) hLigIV
[12] = 100 uM, Ø not defined (0 in Table 5A), read-out: % activity Inhibition hLigIV 100 uM

Structure (SMILES)	inhibition at 100 µM (hLigI; [1]) [%]	inhibition at 100 µM (hLigI; [2]) [%]	inhibition of hLigI (DNA ligase I), in words (hLigI)	inhibition at 100 µM (human DNA ligase III; [3]) [%]	% activity Inhibition hLigIII 100 uM (human DNA ligase III; [4])	inhibition at 100 µM (human DNA ligase IV; [5]) [%]	% activity Inhibition hLigIV 100 uM (human DNA ligase IV; [4])	inhibition at 100 µM (T4 DNA ligase; [6]) [%]	inhibition at 100 µM (T4 DNA ligase; [7]) [%]	inhibition at 100 µM (hLigI; [8]) [%]	inhibition at 100 µM (human DNA ligase III; [9]) [%]	inhibition of human DNA ligase III, in words (human DNA ligase III)	inhibition at 100 µM (human DNA ligase III; [10]) [%]	inhibition at 100 µM (human DNA ligase IV; [11]) [%]	inhibition at 100 µM (human DNA ligase IV; [12]) [%]	inhibition of human DNA ligase IV, in words (human DNA ligase IV)	inhibition of T4 DNA ligase, in words (T4 DNA ligase)	further results
C/C(O)=C1/C(=O)N(c2nc3ccccc3s2)N=C1c1ccccc1 [Compound 43]	29.2 ± 3.5	29 ± 4	specific for DNA ligase I	0	Ø	0	Ø	0	0	–	–	–	–	–	–	–	–	–
O=C(O)CSc1cc(Cl)c2nonc2c1[N+](=O)[O-] [Compound 64]	60.6 ± 0.54	61 ± 1	inhibited hLigI; also recorded: inhibit all three human DNA ligases	49 ± 1	–	52 ± 1	–	18 ± 8	18.4 ± 8.4	61	48.5 ± 0.1	inhibit all three human DNA ligases	49	52	51.9 ± 1.2	inhibit all three human DNA ligases	–	–
Cc1c(Br)cc(NCC(=O)N/N=C\c2cc([N+](=O)[O-])ccc2O)cc1Br [Compound 67]	78.3 ± 8.5	78 ± 8	inhibited hLigI; also recorded: inhibit hLigI but not T4 DNA ligase; also recorded: specifically inhibit DNA ligases I and III; also recorded: inhibit DNA ligase 1; also recorded: inhibits both hLigI and hLigIII	88 ± 12	–	0	Ø	0	0	78	88.2 ± 11.6	specifically inhibit DNA ligases I and III; also recorded: inhibits DNA ligase III; also recorded: inhibits both hLigI and hLigIII	88	< 20	–	do not inhibit DNA ligase IV	inhibit hLigI but not T4 DNA ligase	–
O=c1[nH]ncc(N/N=C\c2ccc(O)c([N+](=O)[O-])c2)c1Cl [Compound 82]	59.8 ± 1.7	60 ± 2	inhibited hLigI; also recorded: inhibit hLigI but not T4 DNA ligase; also recorded: specific for DNA ligase I; also recorded: inhibit DNA ligase 1; also recorded: only inhibits DNA ligase I; also recorded: inhibits only hLigI	29 ± 7	–	0	Ø	14 ± 11	13.9 ± 11.4	–	29.2 ± 7.3	–	–	–	–	do not inhibit DNA ligase IV	inhibit hLigI but not T4 DNA ligase	–
O=C(Cn1cnc([N+](=O)[O-])n1)N/N=C/c1ccc(O)cc1O [Compound 151]	25.9 ± 1.2	26 ± 1	specific for DNA ligase I	0	Ø	0	Ø	0	–	25	–	–	< 20	< 20	–	–	–	–
O=C1Nc2ccccc2Oc2cc([N+](=O)[O-])cc([N+](=O)[O-])c21 [Compound 180]	–	–	inhibited hLigI	–	–	–	–	–	–	–	–	–	> 40	–	–	–	–	inhibition at 100 µM (hLigI; read-out: % of inhibition @ 100 μM (Helen's data) hLigI): 58%; inhibition at 100 µM (human DNA ligase IV; read-out: % of inhibition @ 100 μM (Helen's data) hLigIV): < 20%
CS(=O)(=O)NNC(=O)C(=O)NNc1ccccc1 [Compound 184]	–	–	specific for DNA ligase I	–	Ø	–	Ø	–	–	–	–	–	–	–	–	–	–	% activity Inhibition hLigI 100 uM (hLigI; 100 uM): 37.7 ± 12.4%; % of inhibition @ 100 μM (Helen's data) hLigI (hLigI; 100 μM): 38%; In vitro % inhib hLigI 100 (μM) (hLigI; 100 μM): 38 ± 12%; % of inhibition @ 100 μM (Helen's data) hLigIII (human DNA ligase III; 100 μM): NI (NI- no inhibition); In vitro % inhib hLigIII 100 (μM) (human DNA ligase III; 100 μM): 0%; % of inhibition @ 100 μM (Helen's data) hLigIV (human DNA ligase IV; 100 μM): NI (NI- no inhibition); In vitro % inhib hLigIV 100 (μM) (human DNA ligase IV; 100 μM): 0%; % activity Inhibition LigT4 100 uM (T4 DNA ligase; 100 uM): 0.42 ± 1.4%; In vitro % inhib T4 100 (μM) (T4 DNA ligase; 100 μM): 1 ± 1%
Nc1nc(S)nc(O)c1/N=C/c1ccccc1 [Compound 189]	68.8 ± 4.9	69 ± 5	inhibited hLigI; also recorded: inhibit hLigI but not T4 DNA ligase; also recorded: inhibits all three human DNA ligases; also recorded: inhibit DNA ligase 1	53 ± 5	–	41 ± 6	–	3 ± 2	3.2 ± 1.9	–	52.6 ± 4.8	inhibits all three human DNA ligases; also recorded: inhibits DNA ligase III	–	–	> 50	inhibits all three human DNA ligases; also recorded: inhibits DNA ligase IV	inhibit hLigI but not T4 DNA ligase	–
COc1ccc(-c2cnc3c(O)nc(O)nc3n2)cc1 [Compound 190]	52.5 ± 6.6	53 ± 7	inhibited hLigI; also recorded: specific for DNA ligase I	0	Ø	0	Ø	5 ± 1	5.4 ± 0.74	–	–	–	–	–	–	–	–	–
Cc1oc(C(=O)O)cc1CSCc1cc(C(=O)O)c(C)o1 [Compound 197]	91 ± 6.9	91 ± 7	inhibited hLigI; also recorded: inhibit all three human DNA ligases	96 ± 4	–	57 ± 3	–	24 ± 6	24.4 ± 5.8	91	96.5 ± 3.5	inhibit all three human DNA ligases	97	57	> 60	inhibit all three human DNA ligases	–	–
